The test system of one assay is KYSE520. As to the kind of experiment: CellTiter-Glo cell proliferation inhibition, KYSE520. The assay is classed as cell-based, human. The settings on record: Homo sapiens, KYSE-520; KYSE520 cells, 120 hours, CellTiter-Glo. From the text:
In this study, the CellTiter-Glo® Luminescent Cell Viability Assay kit from Promega was used to evaluate the inhibitory effects of the disclosed compounds on the proliferation of cell lines KYSE520 (a human esophageal squamous cell carcinoma cell line dependent on SHP2 for growth), MeWo (a human malignant melanoma cell line), and MV4-11 (an RTK-mutant human acute monocytic leukemia cell line).
KYSE520 cells (Nanjing Kebaio Biotechnology Co., Ltd., Catalog #CBP60658) were thawed by rapidly shaking the cryovial in a 37 °C water bath to thaw within 1 minute. The thawed cell suspension was mixed homogeneously with RPMI 1640 medium (HyClone, Catalog #SH30027.01) containing 10% FBS (ExCell, Catalog #FND500), centrifuged at 1000 rpm for 5 minutes, and the supernatant was discarded. The cell pellet was resuspended in 5 mL of complete culture medium (RPMI 1640 medium containing 10% FBS) and placed in a cell culture flask with 25 cm^2 of bottom area, then cultured in a cell culture incubator at 37 °C, 95% humidity, and 5% CO2. Cell passaging was performed when the cell confluence reached approximately 80%. During cell passaging, the old culture medium was discarded, the cells were washed once with DPBS (Thermo Fisher, Catalog #14190-144), and 1 mL of trypsin (Thermo Fisher, Catalog #25200072) was added to digest the cells. When the cells dispersed into single cells and detached from the bottom of the culture flask, 3 mL of fresh complete culture medium was added to stop the digestion. After gently pipetting the cell suspension, 1/5 of the cell suspension was retained, 5 mL of fresh complete culture medium was added, and after mixing, the cells were placed in a cell culture flask for further culture. Cell plating was performed when the cell confluence again reached approximately 80%. During cell plating, following the cell passaging method, 1/5 of the cell suspension was retained for continued culture, and the remaining 4/5 of the cell suspension was placed in a 15 mL centrifuge tube. Cell viability was determined using the trypan blue exclusion method to ensure that cell viability was above 90%. A cell suspension with a density of 2.22 × 10^4 cells/mL was prepared using complete culture medium, and 135 µL of the cell suspension was added to a 96-well transparent flat-bottom black-walled cell culture plate (Greiner, Catalog #655090), resulting in a cell density of 3000 viable cells per well. A control group containing only complete culture medium without cells and compounds (i.e., culture medium control) and a control group containing cells but no compound (i.e., cell control) were set up. The cell plates were incubated overnight in a cell culture incubator. First, a 10 mM stock solution of the compound (Example compound and positive control compound 11a-1) in DMSO (Damas-beta, catalog #75927R) was serially diluted 3-fold to the 9th concentration, and a 10th concentration containing only DMSO (without compound) was also prepared as a control. Then, the DMSO solutions containing different concentrations of the compound were diluted 100-fold with complete culture medium, resulting in a 1% DMSO concentration in each solution. Finally, 15 µL of each solution was added to the corresponding wells of the cell culture plate, resulting in a starting compound concentration of 10 µM, with a 3-fold dilution between adjacent concentrations, and a final DMSO concentration of 0.1% in the cell culture plate. The cell plates were then incubated in the cell culture incubator for another 120 hours.
For endpoint detection, CellTiter-Glo reagent (Promega, catalog number #G7573, CellTiter-Glo® Luminescent Cell Viability Assay Kit) was melt and each cell plate was moved to room temperature for equilibration for 30 minutes. 75 µL (KYSE520 cells) or 50 µL (MeWo cells and MV 4-11 cells) of CellTiter-Glo was added to each well of the corresponding cell plate. The plates were shaken on a track-mounted shaker for 2 minutes to fully lyse the cells. […]
(ATP-based viability assays read luminescence as a measure of living cells.)

For assay [1], the target named is T1, SHP2 enzyme (catalytic domain, amino acid sequence 224-528) (Homo sapiens, UniProt Q06124).
T1 construct: purchased GenScript
T1 sequence (Q06124 224-528): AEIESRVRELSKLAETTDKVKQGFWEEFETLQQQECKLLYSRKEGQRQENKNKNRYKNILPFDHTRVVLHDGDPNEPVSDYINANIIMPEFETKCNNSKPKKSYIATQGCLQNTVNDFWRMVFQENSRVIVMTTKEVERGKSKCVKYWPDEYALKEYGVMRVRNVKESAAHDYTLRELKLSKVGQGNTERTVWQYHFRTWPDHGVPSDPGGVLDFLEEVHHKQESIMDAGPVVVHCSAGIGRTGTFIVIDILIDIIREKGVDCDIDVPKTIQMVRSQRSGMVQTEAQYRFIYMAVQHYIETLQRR
In words: SHP2 enzyme inhibition assay (DiFMUP substrate, fluorescence). The assay is classed as biochemical. The note with it: for IC50: SHP2 catalytic domain, DiFMUP substrate, 30 min pre-incubation, read-out: S HP2 I C50; for SHP2 IC50 times lower than control compound 11a-1: relative to 11a-1, IC50 = 0.108 µM. As to the method: This experiment evaluates the inhibitory effect of the test compounds on SHP2 enzyme activity by detecting the reaction between the human recombinant protein SHP2 enzyme and the substrate.
The stock solutions of the reaction buffer components were thawed and mixed homogeneously at room temperature, to prepare the reaction buffer (55 mM HEPES pH = 7.2 (Sigma, Cat. No. #PHR1428), 100 mM NaCl (Beyotime, Cat. No. #ST374, 5 M solution), 0.5 mM EDTA (Beyotime, Cat. No. #ST066), 1 mM DL-Dithiothreitol (DTT) (Sigma, Cat. No. #D9779), 0.002% BSA (Solarbio, Cat. No. #A8010), 0.001% Brij35 (Brij® L23 solution (Brij35) (Sigma, Cat. No. #B4184)). The SHP2 enzyme (catalytic domain, amino acid sequence 224-528, expressed and purified by GenScript) was thawed slowly on ice. 1 µL of this solution (1.37 mg/mL) was added to 386 µL of the reaction buffer to dilute it to 100 nM. Then, 120 µL of the 100 nM SHP2 enzyme solution was added to 2880 µL of reaction buffer to prepare a 4 nM SHP2 enzyme working solution. The test compounds and the specific inhibitor of SHP2 (11a-1, used as a positive control, Zeng, L. et al., J. Med. Chem. 2014, 57, 6594-6609) were prepared as 10 mM DMSO solutions. 10 µL of the 10 mM compound solution was mixed with 20 µL of DMSO solution, and then serially diluted 3-fold, resulting in 10 concentrations. 1 µL of the serially diluted solution was mixed with 99 µL of reaction buffer to obtain a 10-fold diluted compound working solution.
A 96-well black half-area microplate (Greiner, catalog #675076) was used. 25 µL of 4 nM SHP2 enzyme working solution and 5 µL of 10x compound working solution were added to each well and incubated at room temperature for 30 minutes. 15 µL of DiFMUP substrate (Thermo Fisher Scientific, catalog #D6567) was added to 2985 µL of reaction buffer to prepare a 50 µM substrate working solution. After incubation of the compounds and SHP2 enzyme, 20 µL of the 50 µM substrate working solution was added to each well and incubated at room temperature for 5 minutes. The plate was then read on a multi-mode microplate reader (BioTek, Synergy H1) at 340 nm/450 nm fluorescence.
Data were analyzed using GraphPad Prism 9.0 software. A non-linear S-curve regression dose-response-inhibition equation was used to fit the data and generate the dose-response curve, from which the IC50 value was calculated. [formula]

Molecules are shown by their SMILES.

For `CC1(n2c(-c3ccc(NC(=O)C(=O)Nc4ccc(N5CC6(CCOCC6)C5)cc4)cc3)cc3cc(F)c(-c4nnn[nH]4)cc32)CCC1` [Example 58], the results for the IC50 (in the assay with KYSE520; in assay [1]) were 0.125 µM and 31 nM, respectively. The “SHP2 IC50 times lower than control compound 11a-1” value in assay [1] is reported as 3-4 times.
For `CC1(n2c(-c3ccc(NC(=O)C(=O)Nc4ccc(N5CCC6(CCC(CO)CC6)CC5)cc4)cc3)cc3cc(F)c(-c4nnn[nH]4)cc32)CCC1` [Example 113], the IC50 was 0.116 µM with KYSE520 and 114 nM in assay [1].
On to `CC1(n2c(-c3ccc(NC(=O)C(=O)Nc4ccc(N5CC6CC(CO)CC6C5)cc4)cc3)cc3cc(F)c(-c4nnn[nH]4)cc32)CCC1` (stereo not shown) [Example 120], for which the values for the IC50 (in the assay with KYSE520; in assay [1]) were 0.115 µM and 55 nM, respectively.
Consider `CC1(n2c(-c3ccc(NC(=O)C(=O)Nc4ccc(N5CC6(CCC(CO)CC6)C5)cc4)cc3)cc3cc(F)c(-c4nnn[nH]4)cc32)CCC1` [Example 86], for which the IC50 came out at 0.158 µM in the assay on KYSE520 and 64 nM in assay [1].
On to `CC(C)(O)CC1CCN(c2ccc(NC(=O)C(=O)Nc3ccc(-c4cc5cc(F)c(-c6nnn[nH]6)cc5n4C4CCC4)cc3)cc2)CC1` [Example 27], for which the IC50 amounted to 0.17 µM in the assay on KYSE520 and 111 nM in assay [1].
As for `O=C(Nc1ccc(-c2cc3cc(F)c(-c4nnn[nH]4)cc3n2C2CCC2)cc1)C(=O)Nc1ccc(N2CC3CC(CO)CC3C2)cc1` (stereo not shown) [Example 119], the IC50 with KYSE520 was found to be 0.105 µM; in assay [1] it was 55 nM.
As to `C[C@@H](O)C1CCN(c2ccc(NC(=O)C(=O)Nc3ccc(-c4cc5cc(F)c(-c6nnn[nH]6)cc5n4C4(C)CCC4)cc3)cc2)CC1` [Example 30], the figures for the IC50 (in the assay with KYSE520; in assay [1]) were 0.192 µM and 86 nM, respectively.
On to `CC1(n2c(-c3ccc(NC(=O)C(=O)Nc4ccc(N5CC6COCC6C5)cc4)cc3)cc3cc(F)c(-c4nnn[nH]4)cc32)CCC1` (stereo not shown) [Example 115], for which the results for the IC50 (with KYSE520; in assay [1]) were 0.11 µM and 36 nM, respectively. For the same compound, the “SHP2 IC50 times lower than control compound 11a-1” value in assay [1] is reported as 3-4 times.
In the case of `CC1(O)CCC2(CCN(c3ccc(NC(=O)C(=O)Nc4ccc(-c5cc6cc(F)c(-c7nnn[nH]7)cc6n5C5CCC5)cc4)cc3)CC2)C1` (stereo not shown) [Example 104], the IC50 in the assay on KYSE520 was found to be 0.125 µM; in assay [1], 70 nM.
For `CC1(n2c(-c3ccc(NC(=O)C(=O)Nc4ccc(N5CCC6(CCCOC6)CC5)cc4)cc3)cc3cc(F)c(-c4nnn[nH]4)cc32)CCC1` [Example 75], the values for the IC50 (in the assay on KYSE520; in assay [1]) were 0.103 µM and 34 nM, respectively. The “SHP2 IC50 times lower than control compound 11a-1” value in assay [1] was 3-4 times.
On to `CC1(n2c(-c3ccc(NC(=O)C(=O)Nc4ccc(N5CCC6(CCC(CO)C6)CC5)cc4)cc3)cc3cc(F)c(-c4nnn[nH]4)cc32)CCC1` (stereo not shown) [Example 107], for which the IC50 in the assay with KYSE520 came out at 0.101 µM; in assay [1] it was 138 nM.

The values above are taken from patent EP4741383A1, “COMPOUND AND USE THEREOF AS ANTI-CANCER DRUG” (Tyligand Bioscience (Shanghai) Limited, priority 2023, dated 2025).
